In test [1] the target is Dual specificity protein phosphatase 3 (Homo sapiens, UniProt P51452). Briefly: VHR1 inhibitor Ki determination, SAR follow-up, biochemical, colorimetric (AID 2004).
A short description of test [2]: microbe, parasite or virus in culture. Format: functional. To be noted: Mycobacterium tuberculosis.
For test [3], the target named is T1, SUMO-activating enzyme (Homo sapiens, UniProt Q9UBT2). The test is described as follows: SUMOylation inhibitor hit validation, confirmation, SUMOylation inhibitor project, biochemical, AlphaScreen (AID 2018). It is filed as functional. In general terms: In Alpha technology, singlet oxygen from a donor bead excites a nearby acceptor bead.
T1 sequence (Q9UBE0 whole entry): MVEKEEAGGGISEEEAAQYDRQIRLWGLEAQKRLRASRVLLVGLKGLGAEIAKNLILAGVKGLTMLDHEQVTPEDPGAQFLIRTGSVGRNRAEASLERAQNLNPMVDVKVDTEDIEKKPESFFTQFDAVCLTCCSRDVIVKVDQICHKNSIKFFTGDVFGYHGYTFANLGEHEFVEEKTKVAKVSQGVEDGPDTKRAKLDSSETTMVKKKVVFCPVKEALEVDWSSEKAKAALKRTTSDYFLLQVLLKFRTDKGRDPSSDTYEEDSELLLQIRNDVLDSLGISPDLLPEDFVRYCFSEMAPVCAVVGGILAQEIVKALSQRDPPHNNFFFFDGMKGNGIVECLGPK
T1 sequence (Q9UBT2 whole entry): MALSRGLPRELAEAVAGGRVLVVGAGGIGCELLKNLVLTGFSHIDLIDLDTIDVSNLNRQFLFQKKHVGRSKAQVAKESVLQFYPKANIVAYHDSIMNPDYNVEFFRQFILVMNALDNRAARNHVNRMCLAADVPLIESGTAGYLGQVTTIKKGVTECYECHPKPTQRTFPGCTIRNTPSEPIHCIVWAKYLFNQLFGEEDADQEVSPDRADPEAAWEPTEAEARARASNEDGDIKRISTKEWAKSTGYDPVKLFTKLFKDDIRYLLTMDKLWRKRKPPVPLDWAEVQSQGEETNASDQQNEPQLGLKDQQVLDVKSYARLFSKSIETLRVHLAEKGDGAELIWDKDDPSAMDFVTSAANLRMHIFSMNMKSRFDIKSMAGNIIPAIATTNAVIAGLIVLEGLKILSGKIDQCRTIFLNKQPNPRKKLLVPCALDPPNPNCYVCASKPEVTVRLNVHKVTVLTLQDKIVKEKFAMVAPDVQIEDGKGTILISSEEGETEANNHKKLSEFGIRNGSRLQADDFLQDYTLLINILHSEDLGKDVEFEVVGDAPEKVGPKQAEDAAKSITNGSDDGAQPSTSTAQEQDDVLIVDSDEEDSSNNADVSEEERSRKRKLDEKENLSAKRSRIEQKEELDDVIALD
The target in test [4] is E3 ubiquitin-protein ligase Mdm2 (Homo sapiens, UniProt Q00987). The test is described as follows: enhancers of MDM2-luciferase reporter signal, concentration-effect titration, project on inhibitors of MDM2 ubiquitin ligase, cellular assay, luminescent readout, 384-well plate format (AID 1394).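 Note: MDM2 E3 inhibitors raise luminescence so EC50 is for signal enhancement.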 Format: functional. (In general: Reporter assays use an easily measured gene product as a stand-in for the process of interest.)
Chain of E3 ubiquitin-protein ligase Mdm2 (Q00987 whole entry): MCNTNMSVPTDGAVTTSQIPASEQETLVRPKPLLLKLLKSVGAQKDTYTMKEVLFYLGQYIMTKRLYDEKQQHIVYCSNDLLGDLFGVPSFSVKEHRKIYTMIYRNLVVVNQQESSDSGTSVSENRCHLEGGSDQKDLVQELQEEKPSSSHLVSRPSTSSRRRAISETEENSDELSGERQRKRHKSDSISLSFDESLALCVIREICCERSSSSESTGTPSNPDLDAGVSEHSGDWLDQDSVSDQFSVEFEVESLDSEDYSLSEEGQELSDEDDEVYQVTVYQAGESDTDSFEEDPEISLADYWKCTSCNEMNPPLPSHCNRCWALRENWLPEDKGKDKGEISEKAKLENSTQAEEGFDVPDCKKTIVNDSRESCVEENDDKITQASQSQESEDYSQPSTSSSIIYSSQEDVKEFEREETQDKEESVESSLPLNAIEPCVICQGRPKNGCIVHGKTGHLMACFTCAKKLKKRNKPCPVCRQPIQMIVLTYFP

Test [5] deals with T2, Hexokinase HKDC1 (Homo sapiens, UniProt Q2TB90).
T2 sequence (Q2TB90 whole entry): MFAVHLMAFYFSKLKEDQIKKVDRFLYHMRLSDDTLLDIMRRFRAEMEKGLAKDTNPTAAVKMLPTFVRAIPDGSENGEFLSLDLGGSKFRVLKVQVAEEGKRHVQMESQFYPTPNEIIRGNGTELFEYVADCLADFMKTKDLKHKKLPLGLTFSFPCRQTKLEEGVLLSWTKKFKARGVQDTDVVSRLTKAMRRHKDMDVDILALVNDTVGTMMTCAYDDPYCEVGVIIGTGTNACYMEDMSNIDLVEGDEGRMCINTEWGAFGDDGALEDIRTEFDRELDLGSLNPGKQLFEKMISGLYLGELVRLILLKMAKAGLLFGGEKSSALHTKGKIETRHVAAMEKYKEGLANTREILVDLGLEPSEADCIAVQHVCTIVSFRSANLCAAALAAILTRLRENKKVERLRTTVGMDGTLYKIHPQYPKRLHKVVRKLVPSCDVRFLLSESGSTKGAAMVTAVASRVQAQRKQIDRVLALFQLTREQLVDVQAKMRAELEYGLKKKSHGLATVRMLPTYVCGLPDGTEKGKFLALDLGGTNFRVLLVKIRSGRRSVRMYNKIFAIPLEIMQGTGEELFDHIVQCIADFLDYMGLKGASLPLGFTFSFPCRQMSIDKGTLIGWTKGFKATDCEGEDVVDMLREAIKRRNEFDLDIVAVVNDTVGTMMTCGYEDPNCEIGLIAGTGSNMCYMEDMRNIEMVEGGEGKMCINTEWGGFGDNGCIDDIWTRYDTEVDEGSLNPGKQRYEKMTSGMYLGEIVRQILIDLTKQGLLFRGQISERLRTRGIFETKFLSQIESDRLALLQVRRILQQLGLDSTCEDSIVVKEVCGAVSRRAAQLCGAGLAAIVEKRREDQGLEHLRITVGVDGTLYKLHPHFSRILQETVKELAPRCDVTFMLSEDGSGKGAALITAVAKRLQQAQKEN
The test is described as follows: HKDC1 hexokinase inhibitors, dose response, biochemical, W721R variant (AID 504729). It is filed as functional.

Test [6] can be described thus: HEp-2 cell cytotoxicity, dose response, cytotoxicity control for RSV inhibitor project, HTS (AID 2410). To be noted: human respiratory syncytial virus. It is filed as functional.
The target in test [7] is T1, SUMO-activating enzyme. Briefly: inhibitors of in vitro SUMOylation cascade, primary screen, biochemical, HTRF, uHTS (AID 2006). Format: protein-complex assay. On the technique in general: Time-resolved FRET reads energy transfer from a long-lived donor to a nearby acceptor.

Molecules are shown by their SMILES. Active and inactive are the calls of the source.

Chain of Dual specificity protein phosphatase 3 (P51452 whole entry): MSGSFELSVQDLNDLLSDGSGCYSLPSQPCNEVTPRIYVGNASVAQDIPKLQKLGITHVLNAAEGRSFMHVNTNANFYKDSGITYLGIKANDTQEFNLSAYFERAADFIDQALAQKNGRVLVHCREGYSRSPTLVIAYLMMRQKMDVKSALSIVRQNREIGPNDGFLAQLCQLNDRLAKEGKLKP

Consider `Fc1c(F)c(C(F)(F)F)c(F)c(F)c1Oc1cccc2cccnc12`, for which the Ki in test [1] is 122 µM (inactive).

`COc1cc(NC(=O)c2cnc(N)s2)cc(C(=O)Nc2cccc(C(F)(F)F)c2)c1`: the CC50 in test [2] is > 40 µM (active); in test [6] it was 23.6 µM (active). In addition, the 50% inhibitory concentration (IC50) was 10.8 µM (active) in test [3], 10.5 µM (active) in test [5] and 34.5 µM (active) in test [7]. In addition, the EC50 in test [4] is given as 22.9 µM (not active).

As usually defined, the Ki is the dissociation constant of the complex between target and ligand, obtained from inhibition or displacement. As a reminder, the IC50 is the concentration needed to halve the response being measured. Broadly, the EC50 is the concentration that produces a half-maximal response.

For the origin of these results see ChEMBL document CHEMBL1201862, “PubChem BioAssay data set” (2004).
